The results in this text go back to ChEMBL document CHEMBL1949500, “Discovery of dimeric inhibitors by extension into the entrance channel of HIV-1 reverse transcriptase” (Bioorg Med Chem Lett, 2012).

The structures appear in SMILES notation.

The subject of one data set is MT2. Kind of data set: (§1) Cytotoxicity against human MT2 cells by MTT assay. In kind it is cell-based. The note with it: mt2. A general note: Formazan colour is commonly taken as a measure of viable cells.
In data set [1] the test system is Human immunodeficiency virus 1. Kind of data set: Antiviral activity against HIV1 3B infected in human MT2 cells assessed as inhibition of virus-induced cytopathic effect by MTT assay. In kind it is functional, organism-based. On the technique in general: Protection from cytopathic effect is a common read-out in antiviral testing.
Data set [2] is described as follows: as §1. In kind it is cell-based. The note with it: MT2 cells.
Where [3] appears, read: Human immunodeficiency virus 1, 3B, MT2, read-out: EC50.

Broadly, the CC50 is the concentration that lowers cell viability or growth by half. A lower CC50 goes with greater toxicity to the cells. For orientation: EC50 means the concentration needed to bring the measured effect to its halfway point. `COc1nc(NCCCNc2nc(Nc3ccc(C#N)c(OCC=C(C)C)c3)nc(OC)n2)nc(Nc2ccc(C#N)c(OCC=C(C)C)c2)n1` came in with a CC50 in the data set with MT2 of 50 µM. The EC50 result in data set [1] (mt2) is recorded as “Not Active”.

`COc1nc(Nc2ccc(C#N)c(OCC=C(C)C)c2)nc(OCCCCOc2nc(Nc3ccc(C#N)c(OCC=C(C)C)c3)nc(OC)n2)n1`: in the data set on MT2, the cytotoxic concentration (CC50) is more than 100 µM. Besides, the EC50 result in data set [1] (mt2) is “Not Active”.

For `COc1nc(Nc2ccc(C#N)c(OCC=C(C)C)c2)nc(OCCCOc2nc(Nc3ccc(C#N)c(OCC=C(C)C)c3)nc(OC)n2)n1`, the midpoint of cytotoxicity in the data set with MT2, the CC50, lay at 21 µM. For the same compound, the EC50 in data set [1] (setting [3]) amounted to 0.17 µM.

As for `COc1nc(Nc2ccc(C#N)c(OCC=C(C)C)c2)nc(OCCOc2nc(Nc3ccc(C#N)c(OCC=C(C)C)c3)nc(OC)n2)n1`, the midpoint of cytotoxicity in the data set with MT2, the CC50, lay at 42 µM. In addition, in data set [1] (setting [3]), the EC50 was 0.39 µM.

On to `COCCOCCOCCOc1nc(Nc2ccc(C#N)c(OCC=C(C)C)c2)nc(OC)n1`, for which it took 4.2 µM to reach half-maximal cytotoxicity in the data set with MT2 (CC50). Further, the EC50 in data set [1] (setting [3]) stood at 0.38 µM.

As for `COc1nc(Nc2ccc(C#N)c(OCC=C(C)C)c2)nc(OCCC2CCCCO2)n1` (racemic), in the data set with MT2, the midpoint of cytotoxicity, the CC50, lay at 4.2 µM. In data set [1] (setting [3]), the EC50 was determined as 1.2 µM.

`COc1nc(Nc2ccc(C#N)c(OCC=C(C)C)c2)nc(OCCOCCOc2nc(Nc3ccc(C#N)c(OCC=C(C)C)c3)nc(OC)n2)n1` gave a CC50 in the data set on MT2 of more than 100 µM. Besides, the half-maximal effective concentration (EC50) entry in data set [1] (mt2) is “Not Active”.

The compound `COCCOc1nc(Nc2ccc(C#N)c(OCC=C(C)C)c2)nc(OC)n1` showed a CC50 in the data set on MT2 of 8.6 µM. In addition, the EC50 in data set [1] (setting [3]) was 0.097 µM.

`CCc1nc(Nc2ccc(C#N)c(OCC=C(C)C)c2)nc(OCCOCCOC)n1` came in with a 50% cytotoxic concentration (CC50) in the data set with MT2 of 9.8 µM. For the same compound, the EC50 in data set [1] (setting [3]) came out at 0.54 µM.

For the compound `COCCOCCOc1nc(Nc2ccc(C#N)c(OCC=C(C)C)c2)nc(OC)n1`, the half-maximal cytotoxic concentration (CC50) with MT2 worked out at 13 µM. In addition, the EC50 in data set [1] (setting [3]) was found to be 0.15 µM.

`CCc1nc(Nc2ccc(C#N)c(OCC=C(C)C)c2)nc(OCCOC)n1`: in the data set with MT2, the CC50 worked out at 2.1 µM. The EC50 in data set [1] (setting [3]) worked out at 0.057 µM.

For `Cc1ccnc2c1NC(=O)c1cccnc1N2C1CC1` [NEVIRAPINE], in data set [2], the CC50 is more than 100 µM.

As to `COc1nc(Nc2ccc(C#N)c(OCC=C(C)C)c2)nc(OCCN2CCN(C)CC2)n1`, in the data set on MT2, it took 7 µM to reach half-maximal cytotoxicity (CC50). In data set [1] (setting [3]), the EC50 came out at 0.32 µM.

In the data set with MT2, `COc1nc(NCCNc2nc(Nc3ccc(C#N)c(OCC=C(C)C)c3)nc(OC)n2)nc(Nc2ccc(C#N)c(OCC=C(C)C)c2)n1` returned a CC50 of 6 µM. Besides, the EC50 entry in data set [1] (mt2) is given as “Not Active”.
